Assay results: patent publication US11957693B2, “Combination MCL-1 inhibitors with anti-cancer agents” (Gilead Sciences, Inc., priority 2021, dated 2024)
Entries after “also recorded” stand apart in the source; their conditions may differ.

Key:
Assay type in all cases: cell-based
[1] = test system: panel of breast cancer cell lines; test: 72-hour in vitro proliferation combination assay, compound A with targeted agents and chemotherapies (Example 3, Table 21)
HCC70 = test: Cell viability combination assay (Cell Titer Glo, Bliss synergy matrix), paclitaxel 4 h pretreatment then compound A; conditions: Homo sapiens, HCC70, 4 h; read-out: Percent Inhibition
Protocol: (§1) Cells were passaged according to ATCC guidelines with 0.25% Trypsin/EDTA (1× GIBCO-25200).
(§2) Viability assessments were performed using Cell Titer Glo™ (Promega #G9241) according to manufactures microwell plate protocol and read for luminescence on Synergy Neo2 plate reader.
(§3) For synergy matrix assays, TNBC cell lines were seeded 10,000 cells per well in clear-bottomed white 96-well plates (Corning #3909) in 100 μL of recommended cell culture medium. Plates were incubated at 37° C. and 100% RH for 20 hours prior to compound exposure.
(§4) Cells were then exposed to compound A with the same checkerboard matrix using D300 dispenser and incubated for 48 hours prior to measurement of viability by Cell Titer Glo.
(§5) Calculated values were compared to experimental results generated in the sixty-three-concentration checkerboard. Synergy or antagonism scores were generated depending on whether the observed growth inhibition was greater than or less than the calculated values, respectively.
(§6) These differences were summed up across the whole checker-board (sixty-three wells) to give cumulative synergy and antagonism scores with units of μM^2% to reflect the 2D surface of the dose responses.
(§7) Data for combination assays is presented in three formats.

MDA-MB-468 = test: as above; conditions: Homo sapiens, MDA-MB-468, 4 h; read-out: Percent Inhibition
Protocol: as §1, §2, §3, §4, §5, §6, §7

FBXW7 = FBXW7 expression by Protein Simple (Simple Western) in TNBC cell lines after paclitaxel; conditions: HCC70, MDA-MB-468, HCC1806; paclitaxel 1 μM for 4 hours, overnight incubation
Excerpt: Simple Western immunoassays take place in a capillary. Samples and reagents are loaded into an assay plate and placed in a Protein Simple Instrument. Cell lysates are loaded into the capillary automatically and separated by size as they migrate through a stacking and separation matrix. The separated proteins are then immobilized to the capillary wall via a proprietary, photoactivated capture chemistry. Target proteins are identified using a primary antibody and immunoprobed using an HRP-conjugated secondary antibody and chemiluminescent substrate. The resulting chemiluminescent signal is detected and quantitated.
Lysates were prepared, diluted to 0.5 ug/ml in 1× lysis buffer. Simple Western platform is run on a 384-well plate.
Markers, internal ladders and DTT are provided by Simple Western in lyophilized forms. Reagents are resuspended as protocol describes. 20 uL of water is added to the markers. 40 ul of water is added to DTT, 20 ul of 10× sample buffer and 20 ul of DTT is mixed and called Z buffer. Markers are loaded in 1 A. 5 ul of lysate was added to 1.7 ml Eppendorf tube. 1.2 ul of Z reagent was added to each sample. The samples were heated at 100 C for 5 minutes, allowed to cool than spun in a microfuge for 30 seconds. Samples are loaded in wells A2-12. […] The resulting chemiluminescent signal is detected and quantitated.

MCL1 = test: Total MCL1 MSD assay in TNBC cell lines after paclitaxel; conditions: HCC70, MDA-MB-468, HCC1806; paclitaxel 1 μM for 4 hours, overnight incubation
Protocol: (§8) Cell lysates for MSD assays were generated using 1× Lysis Buffer (10× cell signaling CST-9803) 100× Protease Inhibitor, Phosphatase Inhibitor I, Phosphatase Inhibitor II (Meso Scale Discovery Inhibitor Pack R70AA-1, and PMSF (SIGMA cat #7626)
(§9) MCL-BAK and MCL1-BIM dimer assays and total MCL1 assay were developed by MSD Custom Assay Services and run using the MSD U-PLEX Development Pack (K15227N) and protocols' revision “2018 March rev 2”. GAPDH was determined by MSD using standard assay K151PWD. All plates were read on MSD SECTOR Imager 2400 using MSD Read Buffer T (R92TC).
(§10) For MSD assays, TNBC cell lines were seeded 25,000 cells per well in clear-bottomed white 96-well plates (Corning #3909) in recommended cell culture medium. Plates were incubated at 37° C. and 100% RH for 20 hours prior to compound exposure. […] After an additional 20 hours, samples were harvested by aspirating away supernatant and 125 μl of 1× lysis buffer was added to each well. Plates were set on ice briefly and transferred to a rocking platform at 4° C. for 20 minutes. Plates were placed on dry ice, snap frozen for 10 minutes then stored at −80° C. until tested.
(§11) MCL1 and MCL1-BAK and MCL1-BIM dimer assays were run using materials and protocols provided by MSD Custom Assay Services based on their U-Plex technology. […] 150 μl of 2× read buffer was added to each well and plates were read on an MSD SECTOR Imager 2400. […]

MCL1-BAK Dimer = test: MCL1-BAK dimer MSD assay in TNBC cell lines after paclitaxel; conditions: HCC70, MDA-MB-468, HCC1806; paclitaxel 1 μM for 4 hours, overnight incubation
Protocol: as §8, §9, §10, §11

MCL1-BIM Dimer = test: MCL1-BIM dimer MSD assay in TNBC cell lines after paclitaxel; conditions: HCC70, MDA-MB-468, HCC1806; paclitaxel 1 μM for 4 hours, overnight incubation
Protocol: as §8, §9, §10, §11

HCC1187 (TNBC) = test: Cell viability combination assay (Cell Titer Glo, Bliss synergy matrix), compound A + SN-38; conditions: HCC1187 1st Replicate (n = 5); SN-38 0.0000 μM; Compound A μM = c0 of row; 72 h
Excerpt: as §1, §5, §7

HCC1806 = test: Cell viability combination assay (Cell Titer Glo, Bliss synergy matrix), paclitaxel 4 h pretreatment then compound A; conditions: for Synergy Results (95% CI): Paclitaxel 0.000 μM
Protocol: as §1, §2, §3, §4, §5, §6, §7

[2] = BT-474 cell line, compound A × listed agent, 72-hour in vitro proliferation assay
[3] = BT-549 cell line, compound A × listed agent, 72-hour in vitro proliferation assay
[4] = KPL-1 cell line, Compound A × named agent, 72-hour proliferation
[5] = MCF7, combination with compound A, 72-hour proliferation
[6] = MDA-MB-175-VII, combination with compound A, 72-hour proliferation
[7] = MDA-MB-231, combination with compound A, 72-hour proliferation
[8] = MDA-MB-361, combination with compound A, 72-hour proliferation
[9] = MDA-MB-436, combination with compound A, 72-hour proliferation
[10] = MDA-MB-453, combination with compound A, 72-hour proliferation
[11] = MDA-MB-468, combination with compound A, 72-hour proliferation
[12] = SK-BR-3 cell line, combination Compound A × listed agent, 72-hour proliferation
[13] = SUM159PT cell line, combination Compound A × listed agent, 72-hour proliferation
[14] = T47D cell line, combination Compound A × listed agent, 72-hour proliferation
[15] = ZR-75-1 cell line, combination Compound A × listed agent, 72-hour proliferation
[16] = ZR-75-30 cell line, combination Compound A × listed agent, 72-hour proliferation
[17] = AU565 cell line, compound A × listed agent, 72-hour in vitro proliferation assay
[18] = BT-20 cell line, compound A × listed agent, 72-hour in vitro proliferation assay
[19] = DU-4475 cell line, compound A × listed agent, 72-hour in vitro proliferation assay
[20] = Homo sapiens, read-out: Percent Inhibition

Structure (SMILES): CCOc1cc2ncc(C#N)c(Nc3ccc(OCc4ccccn4)c(Cl)c3)c2cc1NC(=O)/C=C/CN(C)C [Neratinib]
- Bliss Volume [1, 2]: 28.98
- HSA volume [1, 2]: 20.36
- Loewe Volume [1, 2]: 18.83
- Synergy Score [1, 2]: 39.01
- Best CI [1, 3]: 0.31
- Bliss Volume [1, 3]: 17.92
- HSA volume [1, 3]: 13.17
- Loewe Volume [1, 3]: 13.98
- Synergy Score [1, 3]: 25.15
- Best CI [1, 4]: 0.55
- Bliss Volume [1, 4]: 9.37
- HSA volume [1, 4]: 2.11
- Loewe Volume [1, 4]: 2.47
- Synergy Score [1, 4]: 9.97
- Best CI [1, 5]: 0.44
- Bliss Volume [1, 5]: 20.28
- HSA volume [1, 5]: 8.47
- Loewe Volume [1, 5]: 8.60
- Best CI [1, 6]: 0.64
- Bliss Volume [1, 6]: 18.28
- HSA volume [1, 6]: 8.80
- Loewe Volume [1, 6]: 7.95
- Synergy Score [1, 6]: 11.07
- Bliss Volume [1, 7]: 6.82
- HSA volume [1, 7]: 2.87
- Loewe Volume [1, 7]: 5.05
- Synergy Score [1, 7]: 4.59
- Bliss Volume [1, 8]: 8.05
- HSA volume [1, 8]: 9.22
- Loewe Volume [1, 8]: 8.69
- Synergy Score [1, 8]: 10.96
- Best CI [1, 9]: 0.26
- Bliss Volume [1, 9]: 5.24
- HSA volume [1, 9]: −0.69
- Loewe Volume [1, 9]: 0.79
- Synergy Score [1, 9]: 4.11
- Best CI [1, 10]: 0.35
- HSA volume [1, 10]: 10.24
- Loewe Volume [1, 10]: 8.51
- Synergy Score [1, 10]: 16.63
- Bliss Volume [1, 11]: 34.71
- Loewe Volume [1, 11]: 9.11
- Synergy Score [1, 11]: 19.05
- Best CI [1, 12]: 0.12
- Bliss Volume [1, 12]: 28.46
- HSA volume [1, 12]: 11.39
- Synergy Score [1, 12]: 22.77
- Best CI [1, 13]: 0.17
- Bliss Volume [1, 13]: 15.93
- HSA volume [1, 13]: 11.51
- Loewe Volume [1, 13]: 12.90
- Synergy Score [1, 13]: 22.98
- Bliss Volume [1, 14]: 7.67
- HSA volume [1, 14]: 2.55
- Loewe Volume [1, 14]: 5.95
- Synergy Score [1, 14]: 11.73
- Best CI [1, 15]: 0.86
- Bliss Volume [1, 15]: 13.55
- HSA volume [1, 15]: 6.49
- Loewe Volume [1, 15]: 7.51
- Synergy Score [1, 15]: 10.39
- Best CI [1, 16]: 0.41
- Bliss Volume [1, 16]: 32.84
- HSA volume [1, 16]: 16.20
- Loewe Volume [1, 16]: 14.61
- Synergy Score [1, 16]: 30.49

Structure (SMILES): CC(=O)O[C@@]12CO[C@@H]1C[C@H](O)[C@@]1(C)C(=O)[C@H](O)C3=C(C)[C@@H](OC(=O)[C@H](O)[C@@H](NC(=O)OC(C)(C)C)c4ccccc4)C[C@@](O)([C@@H](OC(=O)c4ccccc4)[C@H]21)C3(C)C [Docetaxel]
- Best CI Level ([1]; 72 h): 170

Structure (SMILES): CC(=O)O[C@H]1C(=O)[C@@]2(C)[C@H]([C@H](OC(=O)c3ccccc3)[C@]3(O)C[C@H](OC(=O)[C@H](O)[C@@H](NC(=O)c4ccccc4)c4ccccc4)C(C)=C1C3(C)C)[C@]1(OC(C)=O)CO[C@@H]1C[C@@H]2O [Paclitaxel]
- inhibition at 0.0005 µM (HCC70): -2.3%
- inhibition at 1 µM (HCC70): 53.3%
- inhibition at 3 µM (HCC70): 61.4%
- inhibition at 0.0005 µM (MDA-MB-468): 1.1%
- inhibition at 1 µM (MDA-MB-468): 65.1%
- inhibition at 3 µM (MDA-MB-468): 70.5%
- FBXW7 protein levels vs vehicle control (in words) (FBXW7): Increases; also recorded: elevated
- MCL1 protein levels vs vehicle control (in words) (MCL1): Decreases; also recorded: reduced
- protein levels of MCL1-BAK dimers vs vehicle control (in words) (MCL1-BAK Dimer): Decreases; also recorded: reduced
- protein levels of MCL1-BIM dimers vs vehicle control (in words) (MCL1-BIM Dimer): Decreases; also recorded: reduced

Structure (SMILES): N.N.[Cl][Pt][Cl] [Cisplatin]
- Best CI Level [1, 17]: 35
- Best CI Level [1, 18]: 65
- Best CI Level [1, 3]: 160
- Best CI Level ([1]; CAL-120 cell line, compound A × listed agent, 72-hour in vitro proliferation assay): 35
- Best CI Level ([1]; CAL-148 cell line, compound A × listed agent, 72-hour in vitro proliferation assay): 140
- Best CI Level [1, 19]: 40
- Best CI Level ([1]; HCC1143 cell line, compound A × listed agent, 72-hour in vitro proliferation assay): 55

Structure (SMILES): N.N.O=C([O-])C1(C(=O)[O-])CCC1.[Pt+2] [Carboplatin]
- Best CI Level [1, 17]: 40
- Best CI Level [1, 18]: 170
- Best CI Level ([1]; CAL-51 cell line, compound A × listed agent, 72-hour in vitro proliferation assay): 165
- Best CI Level ([1]; CAL-85-1 cell line, compound A × listed agent, 72-hour in vitro proliferation assay): 110
- Best CI Level ([1]; CAMA-1 cell line, compound A × listed agent, 72-hour in vitro proliferation assay): 180
- Best CI Level [1, 19]: 180
- Best CI Level ([1]; EVSA-T cell line, compound A × listed agent, 72-hour in vitro proliferation assay): 180

Structure (SMILES): COc1nn(C)cc1C(=O)N[S@@]1(=O)=NC(=O)c2ccc3c(c2)N(C[C@@H]2CC[C@H]2[C@@H](OC)CCC[C@H](C)C1)C[C@@]1(CCCc2cc(Cl)ccc21)CO3 [Compound A]
- Percent Inhibition (HCC1187 (TNBC)): 99.2%
- Synergy Results (95% CI) (HCC1806; Compound A 0.004 μM): 0.0
- Synergy Results (95% CI) (HCC1806; Compound A 1.000 μM): 0.0
- Synergy Results (95% CI) (HCC1806; Compound A 3.000 μM): 0.0
- Synergy Results (95% CI) (HCC1806; Compound A […]): 0.0
- inhibition at 0.004 µM (HCC1806; [20]): 0.7%
- inhibition at 1 µM (HCC1806; [20]): 8.6%
- inhibition at 3 µM (HCC1806; [20]): 17.9%
